# From ChEMBL document CHEMBL1201862, “PubChem BioAssay data set” (2004)
# Activity calls are given as the source filed them.
# Tests used:
# cells [1] = type: functional, cell-based
# cells [2] = type: functional, cell-based; remark: listed apart in the source
# Fatty acid synthase [3] = target: T1, Fatty acid synthase (Homo sapiens, UniProt P49327); experiment: FAS thioesterase domain inhibitors, dose response, biochemical, kinetic fluorescence intensity (AID 624326); type: functional;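 note: rate of fluorescence rise from hydrolysis of a fluorogenic O-methyl fluorescein ester substrate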
# Fatty acid synthase [4] = target: T1, Fatty acid synthase; experiment: FAS thioesterase domain inhibitors, dose response, biochemical, endpoint fluorescence intensity, uHTS hits (AID 624327); type: functional;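 note: fluorescence from hydrolysis of an O-methyl fluorescein acyl ester substrate by the enzyme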
# [5] = target: Dual specificity tyrosine-phosphorylation-regulated kinase 1A (Rattus norvegicus, UniProt Q63470); type: biochemical, Homo sapiens
# [6] = A Cell Based Secondary Assay To Explore Cytotoxicity of Compounds that Sensitize Mycobacterium Tuberculosis to Beta-Lactam Antibiotics.; type: functional
# [7] = target: Heat shock protein HSP 90-alpha (Homo sapiens, UniProt P07900); type: functional, organism-based
# [8] = HEp-2 cell cytotoxicity, dose response, cytotoxicity control for RSV inhibitor project, HTS (AID 2410); type: functional; settings: human respiratory syncytial virus
# Steroidogenic factor 1 = Steroidogenic factor 1 (Homo sapiens, UniProt Q13285); experiment: Counterscreen for inverse agonists of the liver receptor homolog-1 (LRH-1; NR5A2): Luminescence-based cell-based high throughput dose response assay to identify inverse agonists of the Steroidogenic Factor 1 Nuclear Receptor (SF1; NR5A1).; type: functional
# [9] = target: Nuclear receptor subfamily 5 group A member 2 (Homo sapiens, UniProt O00482); type: functional, cell-based;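 note: HEK293T cells transfected with LRH-1 and a StAR promoter luciferase reporter; potency for inhibitors that lower LRH-1 driven reporter light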
# [10] = StAR promoter reporter inhibition counter-screen, dose response, counter-screen for LRH-1 inverse agonist project, cell-based, luminescence, luciferase reporter (AID 651969); type: functional
# [11] = intracellular Trypanosoma cruzi inhibitors in host cells – cell-based, plate reader, cherry-pick samples, set 3, dose response (AID 651818); type: functional;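 note: compounds incubated with infected cells for about four days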
# [12] = inhibitors of HIV Env-driven cell fusion, dose response, cherry-pick (AID 652057); type: functional, cell-based
# [13] = ZM109 Env clade C HIV-1 fusion inhibitors, dose response, HeLa effector, CEM target cells, luciferase, cherry-pick (AID 652058); type: functional, cell-based
# [14] = target: Glucose-6-phosphate 1-dehydrogenase (Homo sapiens, UniProt P11413); experiment: human G6PD enzyme inhibitors, dose response, selectivity assay for P. falciparum G6PD inhibitor project, biochemical, fluorescence (AID 504792); type: functional
# [15] = target: T2, Zinc finger protein mex-5 (Caenorhabditis elegans, UniProt Q9XUB2); experiment: MEX-5/TCR-2 RNA interaction inhibitors, dose response, biochemical, C. elegans, fluorescence polarization (AID 1960)
# T2 sequence (Q9XUB2 whole entry): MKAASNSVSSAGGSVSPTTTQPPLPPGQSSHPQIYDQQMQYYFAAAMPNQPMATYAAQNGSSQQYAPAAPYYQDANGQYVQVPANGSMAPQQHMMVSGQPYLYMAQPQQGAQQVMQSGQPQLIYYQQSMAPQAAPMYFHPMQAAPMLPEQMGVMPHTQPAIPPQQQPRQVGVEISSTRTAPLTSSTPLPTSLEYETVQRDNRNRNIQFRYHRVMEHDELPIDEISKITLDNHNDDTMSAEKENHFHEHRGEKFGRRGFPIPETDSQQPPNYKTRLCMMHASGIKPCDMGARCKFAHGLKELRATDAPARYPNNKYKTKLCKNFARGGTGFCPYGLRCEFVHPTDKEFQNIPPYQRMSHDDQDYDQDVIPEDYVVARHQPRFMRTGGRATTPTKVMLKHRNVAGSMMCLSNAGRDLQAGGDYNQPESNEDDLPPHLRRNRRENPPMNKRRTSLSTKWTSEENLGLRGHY
# Large T antigen = Large T antigen (Simian virus 40, UniProt P03070); type: functional, Betapolyomavirus macacae;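 note: Confirmatory-stage PubChem screen for compounds that inhibit SV40 T antigen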
# [16] = target: T3, RNA-binding protein pos-1 (Caenorhabditis elegans, UniProt G5EF15); experiment: inhibitors of POS-1/mex-3 RNA binding, dose response, biochemical, fluorescence polarization (AID 1964);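 note: purified POS-1 fused to maltose binding protein made in E. coli; potency of compounds blocking POS-1 binding to fluorescent RNA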
# T3 sequence (G5EF15 whole entry): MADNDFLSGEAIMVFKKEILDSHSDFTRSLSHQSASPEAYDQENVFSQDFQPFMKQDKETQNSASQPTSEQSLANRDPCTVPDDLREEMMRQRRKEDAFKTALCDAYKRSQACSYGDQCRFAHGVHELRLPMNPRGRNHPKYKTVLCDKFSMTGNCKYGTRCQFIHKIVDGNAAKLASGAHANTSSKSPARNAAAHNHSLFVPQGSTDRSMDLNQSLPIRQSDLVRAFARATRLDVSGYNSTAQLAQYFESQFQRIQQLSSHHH
# T1 sequence (P49327 whole entry, the tested form may be a part): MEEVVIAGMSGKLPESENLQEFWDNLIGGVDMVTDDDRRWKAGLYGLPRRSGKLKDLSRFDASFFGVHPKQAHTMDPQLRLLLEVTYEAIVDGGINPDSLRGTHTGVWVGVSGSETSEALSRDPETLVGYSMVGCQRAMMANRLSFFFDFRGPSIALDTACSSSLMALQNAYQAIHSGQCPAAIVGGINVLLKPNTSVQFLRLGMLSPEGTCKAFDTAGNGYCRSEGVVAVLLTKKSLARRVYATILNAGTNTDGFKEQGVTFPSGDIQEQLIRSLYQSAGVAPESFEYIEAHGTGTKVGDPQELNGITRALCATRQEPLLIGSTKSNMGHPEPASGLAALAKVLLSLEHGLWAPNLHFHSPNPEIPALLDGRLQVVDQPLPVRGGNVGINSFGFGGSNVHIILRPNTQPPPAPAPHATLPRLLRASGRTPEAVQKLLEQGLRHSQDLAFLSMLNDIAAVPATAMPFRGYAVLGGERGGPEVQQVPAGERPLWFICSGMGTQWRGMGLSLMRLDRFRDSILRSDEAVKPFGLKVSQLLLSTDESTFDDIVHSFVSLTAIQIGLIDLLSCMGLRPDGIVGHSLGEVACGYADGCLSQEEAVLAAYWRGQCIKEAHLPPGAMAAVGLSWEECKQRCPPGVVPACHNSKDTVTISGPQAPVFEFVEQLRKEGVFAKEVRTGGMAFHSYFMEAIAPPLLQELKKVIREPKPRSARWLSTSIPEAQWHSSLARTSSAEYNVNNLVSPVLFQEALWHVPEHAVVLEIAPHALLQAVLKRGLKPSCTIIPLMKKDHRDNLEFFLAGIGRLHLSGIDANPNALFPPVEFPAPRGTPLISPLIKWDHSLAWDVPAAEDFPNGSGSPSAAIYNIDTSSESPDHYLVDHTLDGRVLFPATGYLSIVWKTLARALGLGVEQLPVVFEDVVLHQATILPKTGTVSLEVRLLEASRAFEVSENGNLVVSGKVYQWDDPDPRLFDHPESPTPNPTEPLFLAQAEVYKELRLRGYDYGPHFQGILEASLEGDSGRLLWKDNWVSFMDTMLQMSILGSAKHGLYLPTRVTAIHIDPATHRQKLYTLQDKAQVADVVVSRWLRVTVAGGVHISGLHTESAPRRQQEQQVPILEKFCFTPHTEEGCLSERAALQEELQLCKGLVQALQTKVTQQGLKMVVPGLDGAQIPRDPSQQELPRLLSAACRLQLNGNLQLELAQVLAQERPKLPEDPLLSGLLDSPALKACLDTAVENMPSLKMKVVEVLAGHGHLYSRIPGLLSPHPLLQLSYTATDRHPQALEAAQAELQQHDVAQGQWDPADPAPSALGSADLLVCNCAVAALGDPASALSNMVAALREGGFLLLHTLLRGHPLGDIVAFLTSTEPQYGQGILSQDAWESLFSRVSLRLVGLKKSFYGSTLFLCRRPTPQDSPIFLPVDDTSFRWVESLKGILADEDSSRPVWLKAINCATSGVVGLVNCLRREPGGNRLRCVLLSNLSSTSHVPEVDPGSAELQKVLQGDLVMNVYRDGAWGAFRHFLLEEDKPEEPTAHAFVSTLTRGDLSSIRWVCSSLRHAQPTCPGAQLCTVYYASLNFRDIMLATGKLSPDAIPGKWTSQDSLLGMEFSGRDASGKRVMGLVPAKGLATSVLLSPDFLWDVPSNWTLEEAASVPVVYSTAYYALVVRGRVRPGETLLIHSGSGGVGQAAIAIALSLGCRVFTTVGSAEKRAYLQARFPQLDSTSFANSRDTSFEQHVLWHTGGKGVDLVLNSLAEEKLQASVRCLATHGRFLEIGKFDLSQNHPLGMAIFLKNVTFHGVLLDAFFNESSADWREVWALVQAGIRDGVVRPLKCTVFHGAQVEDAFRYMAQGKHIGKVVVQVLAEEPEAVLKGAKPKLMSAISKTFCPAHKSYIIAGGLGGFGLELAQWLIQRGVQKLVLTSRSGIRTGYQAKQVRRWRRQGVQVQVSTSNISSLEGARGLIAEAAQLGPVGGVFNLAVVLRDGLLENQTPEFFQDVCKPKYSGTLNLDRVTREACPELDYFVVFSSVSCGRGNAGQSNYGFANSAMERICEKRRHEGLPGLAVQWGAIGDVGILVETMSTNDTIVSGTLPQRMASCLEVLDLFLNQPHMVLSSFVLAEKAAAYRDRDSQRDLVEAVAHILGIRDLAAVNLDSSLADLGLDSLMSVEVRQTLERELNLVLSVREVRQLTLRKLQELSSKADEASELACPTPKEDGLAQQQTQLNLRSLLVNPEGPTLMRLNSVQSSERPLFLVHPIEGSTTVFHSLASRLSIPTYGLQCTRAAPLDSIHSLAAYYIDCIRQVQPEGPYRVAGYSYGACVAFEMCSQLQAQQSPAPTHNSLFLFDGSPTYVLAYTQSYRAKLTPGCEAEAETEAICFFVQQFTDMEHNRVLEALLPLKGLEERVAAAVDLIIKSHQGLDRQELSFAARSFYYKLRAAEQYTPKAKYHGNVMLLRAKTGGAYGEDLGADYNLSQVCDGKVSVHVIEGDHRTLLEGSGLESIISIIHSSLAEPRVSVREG
# Steroidogenic factor 1, sequence (Q13285 whole entry): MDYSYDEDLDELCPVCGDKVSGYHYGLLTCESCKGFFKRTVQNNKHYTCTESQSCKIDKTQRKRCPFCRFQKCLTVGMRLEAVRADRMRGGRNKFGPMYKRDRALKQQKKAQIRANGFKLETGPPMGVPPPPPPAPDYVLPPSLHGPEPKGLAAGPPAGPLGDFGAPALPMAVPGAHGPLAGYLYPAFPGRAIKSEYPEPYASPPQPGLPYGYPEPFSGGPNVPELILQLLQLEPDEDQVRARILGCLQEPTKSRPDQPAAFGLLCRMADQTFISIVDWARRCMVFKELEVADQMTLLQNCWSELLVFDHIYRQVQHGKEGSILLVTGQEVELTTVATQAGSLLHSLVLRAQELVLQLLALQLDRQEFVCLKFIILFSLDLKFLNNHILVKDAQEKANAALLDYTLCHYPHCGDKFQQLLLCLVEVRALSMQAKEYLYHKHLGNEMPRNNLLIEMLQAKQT
# Nuclear receptor subfamily 5 group A member 2, sequence (O00482 whole entry): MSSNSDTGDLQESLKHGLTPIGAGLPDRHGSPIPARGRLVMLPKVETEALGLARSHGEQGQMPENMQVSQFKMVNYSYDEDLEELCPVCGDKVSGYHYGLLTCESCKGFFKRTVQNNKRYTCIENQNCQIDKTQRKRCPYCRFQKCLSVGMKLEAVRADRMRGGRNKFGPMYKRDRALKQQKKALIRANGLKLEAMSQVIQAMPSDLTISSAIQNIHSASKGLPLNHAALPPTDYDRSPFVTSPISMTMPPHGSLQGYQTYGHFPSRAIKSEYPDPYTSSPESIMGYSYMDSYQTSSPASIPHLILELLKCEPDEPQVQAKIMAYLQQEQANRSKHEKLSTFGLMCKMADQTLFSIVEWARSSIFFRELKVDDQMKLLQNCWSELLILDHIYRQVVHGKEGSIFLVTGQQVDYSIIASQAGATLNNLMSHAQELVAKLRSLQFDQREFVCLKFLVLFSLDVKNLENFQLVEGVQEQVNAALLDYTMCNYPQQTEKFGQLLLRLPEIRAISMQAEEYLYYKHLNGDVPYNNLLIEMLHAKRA
# Large T antigen, sequence (P03070 whole entry, the tested form may be a part): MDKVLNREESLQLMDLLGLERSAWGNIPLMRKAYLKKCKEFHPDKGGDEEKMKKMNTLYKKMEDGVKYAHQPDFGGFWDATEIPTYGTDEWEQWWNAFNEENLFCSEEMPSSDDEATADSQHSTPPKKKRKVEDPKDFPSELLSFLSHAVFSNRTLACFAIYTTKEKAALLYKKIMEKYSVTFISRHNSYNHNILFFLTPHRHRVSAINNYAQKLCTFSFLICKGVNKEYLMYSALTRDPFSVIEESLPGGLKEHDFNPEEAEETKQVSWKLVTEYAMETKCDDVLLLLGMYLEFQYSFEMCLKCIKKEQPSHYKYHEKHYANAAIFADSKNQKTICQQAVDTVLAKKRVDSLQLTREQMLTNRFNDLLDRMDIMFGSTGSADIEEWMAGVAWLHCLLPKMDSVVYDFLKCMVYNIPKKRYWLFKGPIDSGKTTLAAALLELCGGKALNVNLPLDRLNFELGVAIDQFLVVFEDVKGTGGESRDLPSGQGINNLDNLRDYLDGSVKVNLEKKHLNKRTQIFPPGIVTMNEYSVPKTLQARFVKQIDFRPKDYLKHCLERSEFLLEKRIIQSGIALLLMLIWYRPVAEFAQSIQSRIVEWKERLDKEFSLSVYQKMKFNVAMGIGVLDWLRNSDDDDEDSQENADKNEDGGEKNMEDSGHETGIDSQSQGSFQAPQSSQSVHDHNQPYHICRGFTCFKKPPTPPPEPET
# Glucose-6-phosphate 1-dehydrogenase, sequence (P11413 whole entry): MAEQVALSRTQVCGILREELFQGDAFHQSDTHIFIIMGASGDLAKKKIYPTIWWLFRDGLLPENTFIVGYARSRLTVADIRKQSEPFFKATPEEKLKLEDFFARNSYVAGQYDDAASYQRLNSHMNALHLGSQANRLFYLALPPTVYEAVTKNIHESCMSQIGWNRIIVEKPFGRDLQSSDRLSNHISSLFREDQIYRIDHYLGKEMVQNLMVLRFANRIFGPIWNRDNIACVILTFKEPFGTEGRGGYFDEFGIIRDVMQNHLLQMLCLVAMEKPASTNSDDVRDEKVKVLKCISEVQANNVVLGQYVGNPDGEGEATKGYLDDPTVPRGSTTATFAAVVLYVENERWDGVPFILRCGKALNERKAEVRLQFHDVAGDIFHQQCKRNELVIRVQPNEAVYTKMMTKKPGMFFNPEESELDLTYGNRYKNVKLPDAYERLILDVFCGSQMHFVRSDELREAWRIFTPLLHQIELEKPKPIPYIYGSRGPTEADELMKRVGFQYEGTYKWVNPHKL
structure (smiles),measurement,setting,value
Cc1cccc(CCNC(=O)Cn2ncc3c4cc(C)ccc4nc-3c2O)c1,EC50,cells [1],> 350 µM (not active)
same,EC50,cells [2],> 350 µM (not active)
CC(C)(C)c1ccc(/C=C2\CCn3c2nc2cc(C(=O)O)ccc2c3=O)cc1,IC50,Fatty acid synthase [3],3 µM (active)
same,IC50,Fatty acid synthase [4],3.26 µM (active)
NNc1nc2c(Cl)ccc(Cl)c2s1,AC50,[5],0.905 µM (active)
O=C(/C=C/c1ccccn1)c1cc(Br)ccc1O,CC50,[6],> 40 µM (active)
same,AC50,[7],2.03 µM (active)
O=C(CCn1c(=O)c2ccccc2n(Cc2cccc([N+](=O)[O-])c2)c1=O)N1CCc2ccccc2C1,IC50,Fatty acid synthase [3],1.17 µM (active)
same,IC50,Fatty acid synthase [4],1.26 µM (active)
same,CC50,[8],> 50 µM (active)
CCOc1ccc(OCCN2C(=O)NC(Cc3c[nH]c4ccccc34)C2=O)cc1 (configuration not stated),IC50,Steroidogenic factor 1,5.29 µM (active)
same,IC50,[9],4.18 µM (active)
same,IC50,[10],35.9 µM (inactive)
COc1ccc(CCn2c(C)cc(C(=O)COC(=O)c3ccc(O)cc3O)c2C)cc1,IC50,Steroidogenic factor 1,5.82 µM (active)
same,IC50,[9],35.9 µM (inactive)
same,IC50,[10],35.9 µM (inactive)
COc1ccc(CCNC(=O)COC(=O)c2cc(Cl)nc(Cl)c2)cc1,IC50,Steroidogenic factor 1,3.23 µM (active)
same,IC50,[9],8.32 µM (active)
same,IC50,[10],35.9 µM (inactive)
Cc1ccc(NC(=O)CSc2nc3nc(O)cc(O)c3s2)c(Br)c1,IC50,Steroidogenic factor 1,9.35 µM (active)
same,IC50,[9],35.9 µM (inactive)
same,IC50,[10],35.9 µM (inactive)
CC(=O)Nc1cc(-c2ccc(S(C)(=O)=O)cc2)cn2c(-c3ccc(F)cc3)cnc12,IC50,Steroidogenic factor 1,3.11 µM (active)
same,IC50,[9],8.24 µM (active)
same,IC50,[10],23.7 µM (inactive)
C[C@H](CO)N1C[C@H](C)[C@@H](CN(C)Cc2ccc(C(F)(F)F)cc2)Oc2c(NC(=O)c3nc4ccccc4s3)cccc2C1=O,AC50,[11],1.05 µM (active)
Cc1ccc(S(=O)(=O)Nc2cccc3c2O[C@H](CN(C)Cc2ccc(C(=O)Nc4ccccc4N)cc2)[C@H](C)CN([C@H](C)CO)C3=O)cc1,AC50,[11],2.26 µM (active)
C[C@@H]1CCCCO[C@@H](CN(C)Cc2ccc(C(F)(F)F)cc2)[C@@H](C)CN([C@H](C)CO)C(=O)c2cc(NS(=O)(=O)c3ccc(Cl)cc3)ccc2O1,AC50,[11],3.01 µM (active)
C[C@H]1CN([C@@H](C)CO)C(=O)c2cccc(NS(=O)(=O)c3ccccc3)c2O[C@H]1CN(C)Cc1ccc(C(=O)Nc2ccccc2N)cc1,AC50,[11],3.48 µM (active)
C[C@@H]1CN([C@H](C)CO)C(=O)Cc2cc(NC(=O)Nc3ccc(C(F)(F)F)cc3)ccc2O[C@H]1CN(C)Cc1ccccc1,AC50,[11],4.06 µM (active)
C[C@@H]1CN([C@@H](C)CO)S(=O)(=O)c2ccc(C3=CCCC3)cc2O[C@@H]1CN(C)C(=O)C1CCOCC1,AC50,[12],59 µM (active)
same,AC50,[13],10.2 µM (active)
O=C(CCc1ccc(O)c(O)c1)N/N=C/c1cc2c(cc1[N+](=O)[O-])OCO2,IC50,[14],> 80 µM (inactive)
same,EC50,[15],6.35 µM (active)
same,IC50,Large T antigen,13.8 µM (active)
same,EC50,[16],24 µM (active)
O=c1c(/N=N/c2ccc(O)cc2)c(-c2ccccc2)[nH]n1-c1ccc([N+](=O)[O-])cc1,CC50,[6],17.7 µM (active)
